Experimental data as given in patent publication US20160184356A1, “ARSENIC-BASED TREATMENT OF CANCERS AND INFLAMMATORY DISORDERS” (STC.UNM, priority 2013, published 2016).
Where two headings read alike, the source gives them in different places.

Columns and labels:
[1] = target: T1, APTX (C2H2) zinc finger peptide (Homo sapiens, UniProt Q7Z2E3); format: binding
T1 construct: purchased Genemed Synthesis Inc. (San Antonio, Tex.); host or cells: chemical synthesis
T1 sequence (Q7Z2E3 330-356 limits assumed): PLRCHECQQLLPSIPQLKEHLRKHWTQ

[2] = target: T2, PARP-1 (C3H1) zinc finger peptide (Homo sapiens, UniProt P09874, DEL32-46); format: binding
T2 construct: purchased Genemed Synthesis Inc. (San Antonio, Tex.); host or cells: chemical synthesis
T2 sequence (P09874 with tags, fused parts or gaps DEL32-46 limits assumed): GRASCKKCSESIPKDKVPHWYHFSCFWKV

[3] = target: T3, XPA (C4) zinc finger peptide (Homo sapiens, UniProt P23025); format: binding
T3 construct: purchased Genemed Synthesis Inc. (San Antonio, Tex.); host or cells: chemical synthesis
T3 sequence (P23025 101-137 limits assumed): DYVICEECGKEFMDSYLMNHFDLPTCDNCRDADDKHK

[4] = target: T1, APTX (C2H2) zinc finger peptide; format: binding; remark: listed apart in the source
[5] = target: T2, PARP-1 (C3H1) zinc finger peptide; format: binding; remark: listed apart in the source
[6] = target: T3, XPA (C4) zinc finger peptide; format: binding; remark: listed apart in the source
[7] = target: T1, APTX (C2H2) zinc finger peptide; format: binding; remark: listed apart in the source
[8] = target: T2, PARP-1 (C3H1) zinc finger peptide; format: binding; remark: listed apart in the source
[9] = target: T3, XPA (C4) zinc finger peptide; format: binding; remark: listed apart in the source
[10] = target: T1, APTX (C2H2) zinc finger peptide; format: binding; remark: listed apart in the source
[11] = target: T2, PARP-1 (C3H1) zinc finger peptide; format: binding; remark: listed apart in the source
[12] = target: T3, XPA (C4) zinc finger peptide; format: binding; remark: listed apart in the source
[13] = target: T4, APTX protein (Homo sapiens, UniProt Q7Z2E3); format: cell-based
T4 construct: APTX, PARP-1, and XPA protein were immunoprecipitated from cell extracts using corresponding antibodies; endogenous in cells; host or cells: HaCaT human keratinocytes
T4 sequence (Q7Z2E3 whole entry): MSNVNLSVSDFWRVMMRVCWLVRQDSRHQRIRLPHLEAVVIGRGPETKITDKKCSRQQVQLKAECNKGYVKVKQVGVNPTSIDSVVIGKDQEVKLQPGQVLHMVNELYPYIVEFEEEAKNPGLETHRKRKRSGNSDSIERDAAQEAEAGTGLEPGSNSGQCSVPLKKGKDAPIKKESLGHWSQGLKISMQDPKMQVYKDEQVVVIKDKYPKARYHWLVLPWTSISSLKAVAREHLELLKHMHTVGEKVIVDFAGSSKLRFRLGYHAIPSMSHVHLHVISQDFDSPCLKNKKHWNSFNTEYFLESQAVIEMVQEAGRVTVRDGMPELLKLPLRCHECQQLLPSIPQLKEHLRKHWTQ

[14] = target: T5, PARP-1 protein (Homo sapiens, UniProt P09874); format: cell-based
T5 construct: APTX, PARP-1, and XPA protein were immunoprecipitated from cell extracts using corresponding antibodies; endogenous in cells; host or cells: HaCaT human keratinocytes
T5 sequence (P09874 whole entry): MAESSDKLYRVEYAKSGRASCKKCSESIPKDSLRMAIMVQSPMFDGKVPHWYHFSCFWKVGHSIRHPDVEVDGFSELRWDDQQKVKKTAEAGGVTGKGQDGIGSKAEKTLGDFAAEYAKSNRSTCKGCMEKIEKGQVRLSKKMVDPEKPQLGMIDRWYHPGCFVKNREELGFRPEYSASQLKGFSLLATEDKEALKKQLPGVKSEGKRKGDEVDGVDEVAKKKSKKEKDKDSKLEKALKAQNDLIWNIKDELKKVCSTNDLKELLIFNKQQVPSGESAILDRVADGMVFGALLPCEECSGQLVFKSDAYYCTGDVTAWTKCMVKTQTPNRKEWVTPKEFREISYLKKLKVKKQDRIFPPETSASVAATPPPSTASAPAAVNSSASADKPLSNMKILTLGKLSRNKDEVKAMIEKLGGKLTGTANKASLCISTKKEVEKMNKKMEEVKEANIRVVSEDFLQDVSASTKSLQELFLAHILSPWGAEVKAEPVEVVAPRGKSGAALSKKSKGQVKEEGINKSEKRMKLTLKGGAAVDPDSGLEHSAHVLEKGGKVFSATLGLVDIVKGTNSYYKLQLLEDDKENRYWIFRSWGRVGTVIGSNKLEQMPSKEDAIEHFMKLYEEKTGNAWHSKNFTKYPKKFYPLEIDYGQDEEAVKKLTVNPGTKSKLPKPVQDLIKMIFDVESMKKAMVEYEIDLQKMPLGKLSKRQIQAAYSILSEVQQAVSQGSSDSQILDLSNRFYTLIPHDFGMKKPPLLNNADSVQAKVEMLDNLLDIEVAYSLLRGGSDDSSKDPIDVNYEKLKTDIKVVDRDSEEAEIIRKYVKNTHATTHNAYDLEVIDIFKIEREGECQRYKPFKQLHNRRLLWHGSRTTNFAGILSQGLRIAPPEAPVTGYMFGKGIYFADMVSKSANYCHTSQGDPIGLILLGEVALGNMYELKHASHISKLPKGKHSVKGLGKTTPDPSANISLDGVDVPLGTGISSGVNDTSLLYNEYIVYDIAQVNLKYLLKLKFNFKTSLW

[15] = target: T6, XPA protein (Homo sapiens, UniProt P23025); format: cell-based
T6 construct: APTX, PARP-1, and XPA protein were immunoprecipitated from cell extracts using corresponding antibodies; endogenous in cells; host or cells: HaCaT human keratinocytes
T6 sequence (P23025 whole entry): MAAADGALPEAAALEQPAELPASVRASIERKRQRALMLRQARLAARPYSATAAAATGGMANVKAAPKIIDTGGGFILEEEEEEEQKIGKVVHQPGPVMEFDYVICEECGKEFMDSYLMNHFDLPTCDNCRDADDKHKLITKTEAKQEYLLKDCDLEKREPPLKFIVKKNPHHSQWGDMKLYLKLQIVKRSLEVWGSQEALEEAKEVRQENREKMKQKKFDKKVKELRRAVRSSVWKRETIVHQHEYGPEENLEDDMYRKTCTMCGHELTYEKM

[16] = target: T7, PARP (Homo sapiens, UniProt P09874); design: host or cells: urothelial cells; conditions: 1 µM; cited from earlier work
Target sequence in this assay (P09874 2-1014 limits assumed): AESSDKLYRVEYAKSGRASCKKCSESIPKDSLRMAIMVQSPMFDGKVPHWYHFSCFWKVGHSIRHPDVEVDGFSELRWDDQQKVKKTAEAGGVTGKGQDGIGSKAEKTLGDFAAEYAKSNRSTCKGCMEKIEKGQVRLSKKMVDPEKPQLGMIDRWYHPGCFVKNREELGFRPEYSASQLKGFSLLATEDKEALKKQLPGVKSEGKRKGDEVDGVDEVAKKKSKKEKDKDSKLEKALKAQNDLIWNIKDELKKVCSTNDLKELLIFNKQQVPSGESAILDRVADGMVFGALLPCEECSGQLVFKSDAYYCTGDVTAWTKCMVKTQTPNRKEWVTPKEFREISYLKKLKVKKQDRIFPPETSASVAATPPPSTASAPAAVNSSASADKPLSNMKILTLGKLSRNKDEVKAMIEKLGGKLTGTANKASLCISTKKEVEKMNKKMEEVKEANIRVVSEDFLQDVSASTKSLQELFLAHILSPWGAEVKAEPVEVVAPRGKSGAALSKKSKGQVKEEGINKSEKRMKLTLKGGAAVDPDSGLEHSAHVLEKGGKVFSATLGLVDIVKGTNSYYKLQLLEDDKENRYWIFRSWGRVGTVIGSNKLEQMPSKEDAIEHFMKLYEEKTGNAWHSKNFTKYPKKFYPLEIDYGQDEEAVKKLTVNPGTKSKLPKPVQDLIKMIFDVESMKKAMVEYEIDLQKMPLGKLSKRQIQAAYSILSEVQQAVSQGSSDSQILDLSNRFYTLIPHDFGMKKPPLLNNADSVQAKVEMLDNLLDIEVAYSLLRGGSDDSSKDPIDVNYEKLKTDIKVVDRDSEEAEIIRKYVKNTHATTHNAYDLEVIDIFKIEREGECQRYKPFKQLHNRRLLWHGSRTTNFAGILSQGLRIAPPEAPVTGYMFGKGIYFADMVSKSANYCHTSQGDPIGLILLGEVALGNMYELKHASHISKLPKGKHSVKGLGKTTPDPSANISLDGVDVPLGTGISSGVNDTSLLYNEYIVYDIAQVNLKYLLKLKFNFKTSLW

[17] = tested on: C3H1 and C4 complexes; conditions: cited from earlier work
[18] = tested on: C2H2 complex; conditions: cited from earlier work
[19] = target: T7, PARP; design: host or cells: human keratinocytes; conditions: cited from earlier work
Target sequence in this assay (P09874 2-1014): as the sequence (P09874 2-1014 limits assumed) above

Compound	cobalt binding (absorbance at 660 nm) after incubation with arsenical [1]	cobalt binding (absorbance at 660 nm) after incubation with arsenical [2]	cobalt binding (absorbance at 660 nm) after incubation with arsenical [3]	As—S bond formation (A270) [4]	As—S bond formation (A270) [5]	As—S bond formation (A270) [6]	binding to zinc finger peptide by MALDI-TOF mass spectrometry [7]	binding to zinc finger peptide by MALDI-TOF mass spectrometry [8]	binding to zinc finger peptide by MALDI-TOF mass spectrometry [9]	tertiary structure change (fluorescent intensity at 350 nm) [10]	tertiary structure change (fluorescent intensity at 350 nm) [11]	tertiary structure change (fluorescent intensity at 350 nm) [12]	zinc content in protein [13]	zinc content in protein [14]	zinc content in protein [15]	PARP activity inhibition [16]	stability of arsenite bound complex in kinetic studies [17] [min]	stability of arsenite bound complex in kinetic studies [18] [min]	PARP activity inhibition [19]
C[As](O)O [MMA(III), monomethylarsonous acid]	concentration-dependent decrease in cobalt binding to all three peptides	concentration-dependent decrease in cobalt binding to all three peptides	concentration-dependent decrease in cobalt binding to all three peptides	A270 values increased for all three types of zinc fingers	A270 values increased for all three types of zinc fingers	A270 values increased for all three types of zinc fingers	bound to APTX zinc finger peptide	also bound to the PARP-1 zinc finger	bound to the XPA zinc finger	decreased in a concentration-dependent manner	alters the tertiary structure of all 3 conformations of zinc fingers	alters the tertiary structure of all 3 conformations of zinc fingers	caused zinc loss from all three configurations of zinc finger proteins	caused zinc loss from all three configurations of zinc finger proteins	caused zinc loss from all three configurations of zinc finger proteins	about 30%			
sodium arsenite		decreased subsequent cobalt binding in a concentration-dependent manner	decreased subsequent cobalt binding in a concentration-dependent manner		A270 values increased in a concentration-dependent manner	A270 values increased in a concentration-dependent manner	showed no binding to the APTX zinc finger	bound with PARP-1 and XPA zinc finger peptides	bound with PARP-1 and XPA zinc finger peptides	showed no effect	selectively disrupted the tertiary structure of C3H1 and C4 zinc fingers	selectively disrupted the tertiary structure of C3H1 and C4 zinc fingers	selectively displaced zinc from PARP-1 and XPA proteins	selectively displaced zinc from PARP-1 and XPA proteins	selectively displaced zinc from PARP-1 and XPA proteins		155	1.29	up to 90%
